Marks after values point to notes of the source that are not given here.
What was measured:
db/db mice [1] = assay: Oral glucose tolerance test (OGTT); type: in vivo; details: for OGTT glucose concentration versus G8 group (FIG. 6A): week 6 (medication stopped for 3 weeks), time points of 30 min and 60 min; for OGTT glucose concentration versus G8 group (FIG. 6B): week 9 (medication stopped for 6 weeks), time points of 30 min, 60 min and 120 min
Procedure: Blood was sampled from the tail vein, and FPG levels were measured and recorded as the basic blood glucose levels. […] The total area under the curve (AUC) in OGTT was plotted and calculated by the Area Under Coordinates Program (StatsToDo Server, Department of Obstetrics and Gynecology, Chinese University of Hong Kong).

db/db mice [2] = assay: Histopathological assessment (H&E stain); type: in vivo
Text: For histopathological assessment, all mice were sacrificed by 95% CO2 asphyxiation at the end of the study period. Their brain, liver, kidney, pancreas, and epididymal fat pads were removed, fixed in 10% phosphate-buffered formalin, and embedded in paraffin. Tissues embedded in paraffin were cut into 4-μm-thick sections that were then stained with hematoxylin-eosin (i.e., H&E stain).

db/db mice [3] = assay: Plasma biochemical parameters (AST, ALT, BUN, Cr, HbA1c); details: daily 3 weeks then stopped, DMH 0.41, MER 0.205, CEFT 0.82, PEN 1.473, TIE 0.41 mg/g bw i.p., MET 0.3 mg/g bw oral, week 9
Procedure: Inflammatory markers such as serum aspartate aminotransferase (AST), alanine aminotransferase (ALT), blood urea nitrogen (BUN), creatinine (Cr), and hemoglobin A1c (HbA1c) were measured using a BMC-Hitachi 717 chemistry auto analyzer.

db/db mice [4] = assay: Food and water intake of mice; type: in vivo; details: daily 3 weeks then stopped, DMH 0.41, MER 0.205, CEFT 0.82, PEN 1.473, TIE 0.41 mg/g bw i.p., MET 0.3 mg/g bw oral, average
Procedure: Four to five weeks old db/db mice (BKS.Cg-Dock7^m+/+Lepr^db/JNarl) and m/m mice (BKS.Cg-Dock7^m+/Dock7^m+) were obtained from National Laboratory Animal Center ([…], Taiwan). […] PMI Nutrition International, Brentwood, Mo.) and water ad libitum. […] The mouse body weight (bw) and the amounts of water and food intake were recorded weekly for the entire study period.

[5] = 0.41 mg/g bw/day i.p. for 3 weeks (Example 1)

Compound | OGTT glucose concentration versus G8 group (FIG. 6A) (db/db mice [1]) | OGTT glucose concentration versus G8 group (FIG. 6B) (db/db mice [1]) | Kidney histological changes (tubular degeneration and necrosis, mineralization deposition, hyaline cast) (db/db mice [2]; Example 2, end of study) | BUN (db/db mice [3]) | also measured
C[C@@H](O)[C@H]1C(=O)N2C(C(=O)O)=C(S[C@@H]3CN[C@H](C(=O)Nc4cccc(C(=O)O)c4)C3)[C@H](C)[C@H]12 [DMH, ertapenem] | significantly lower than that in the G8 group | significantly lower than that in the G8 group | more apparent in metformin-treated mice than in ertapenem-treated mice | 44 ± 2^d mg/dL | OGTT glucose concentration versus DB group (FIG. 1) (db/db mice [1]; 0.41 mg/g bw/day i.p., week 3, time points of 90 min and 120 min): significantly lower than that in the DB group; Effect on oral glucose tolerance after treatment stopped (db/db mice [1]; treatment had been stopped for 10 weeks (Example 2)): effectively increased the oral glucose tolerance; Injuries in brain, liver, kidney, pancreas and epididymal fat pads (db/db mice [2]; [5]): no significant injuries; Severity and incidence of liver glycogen storage versus DB group (db/db mice [2]; [5]): slighter than that in the DB group; Injuries in liver, kidney, pancreas and epididymal fat pads (db/db mice [2]; Example 2, end of study): No significant injuries
C[C@@H](O)[C@H]1C(=O)N2C(C(=O)O)=C(S[C@@H]3CN[C@H](C(=O)N(C)C)C3)[C@H](C)[C@H]12 [MER, meropenem hydrate] |  |  |  | 43 ± 2^bd mg/dL | ALT (db/db mice [3]): 89 ± 5^bcd U/L
CN(C)C(=N)N=C(N)N [Met, metformin] |  |  | more apparent in metformin-treated mice than in ertapenem-treated mice |  | 
CC1(C)S[C@@H]2[C@H](NC(=O)Cc3ccccc3)C(=O)N2[C@H]1C(=O)O [PEN, penicillin G] | significantly lower than that in the G8 group | significantly lower than that in the G8 group |  |  | Diet intake (db/db mice [4]): 4.0 ± 0.9^a g/mice/day
